How the values were obtained:
MCF7 = assay: Cytotoxicity against human MCF7 cells […] by MTT reduction assay; format: functional, cell-based
HeLa = assay: cells; conditions: Homo sapiens
Description: Cytotoxicity against human HeLa cells at 50 uM by MTT reduction assay

K562 = assay: cells; conditions: Homo sapiens
Description: Cytotoxicity against human K562 cells at 50 uM by MTT reduction assay

LS180 = assay: cells; conditions: Homo sapiens
Description: Cytotoxicity against human LS180 cells at 50 uM by MTT reduction assay

Staphylococcus aureus [1] = assay: Antibacterial activity against Staphylococcus aureus assessed as zone of inhibition at 100 ug/ml; format: functional; conditions: read-out: IZ
Bacillus subtilis = assay: Antibacterial activity against Bacillus subtilis assessed as zone of inhibition at 100 ug/ml; format: functional; conditions: read-out: IZ
Escherichia coli [2] = assay: Antibacterial activity against Escherichia coli assessed as zone of inhibition at 100 ug/ml; format: functional; conditions: read-out: IZ
Salmonella typhimurium = assay: Antibacterial activity against Salmonella typhimurium DT104 assessed as zone of inhibition at 100 ug/ml; format: functional, Salmonella enterica subsp. enterica serovar Typhimurium; conditions: Salmonella enterica, read-out: IZ
Staphylococcus aureus [3] = assay: Antibacterial activity against Staphylococcus aureus assessed as zone of inhibition at 20 mg/ml; format: functional; conditions: read-out: IZ
Bacillus cereus = assay: Antibacterial activity against Bacillus cereus assessed as zone of inhibition at 20 mg/ml; format: functional; conditions: read-out: IZ
Escherichia coli [4] = assay: Antibacterial activity against Escherichia coli assessed as zone of inhibition at 20 mg/ml; format: functional; conditions: read-out: IZ
Pseudomonas aeruginosa = assay: Antibacterial activity against Pseudomonas aeruginosa assessed as zone of inhibition at 20 mg/ml; format: functional; conditions: read-out: IZ
Serratia marcescens = assay: Antibacterial activity against Serratia marcescens assessed as zone of inhibition at 20 mg/ml; format: functional; conditions: read-out: IZ
Micrococcus luteus = assay: Antibacterial activity against Micrococcus luteus assessed as zone of inhibition at 20 mg/ml; format: functional; conditions: read-out: IZ
Candida albicans = assay: Antifungal activity against Candida albicans assessed as zone of inhibition at 20 mg/ml; format: functional; conditions: read-out: IZ
Trichophyton rubrum = assay: Antifungal activity against Trichophyton rubrum assessed as zone of inhibition at 20 mg/ml; format: functional; conditions: read-out: IZ
Aspergillus flavus = assay: Antifungal activity against Aspergillus flavus assessed as zone of inhibition at 20 mg/ml; format: functional; conditions: read-out: IZ
Fusarium oxysporum = assay: Antifungal activity against Fusarium oxysporum assessed as zone of inhibition at 20 mg/ml; format: functional; conditions: read-out: IZ
Scopulariopsis = assay: Antifungal activity against Scopulariopsis assessed as zone of inhibition at 20 mg/ml; format: functional; conditions: read-out: IZ
Geotrichum candidum = assay: Antifungal activity against Geotrichum candidum assessed as zone of inhibition at 20 mg/ml; format: functional; conditions: read-out: IZ

Row | IC50 (HeLa) | IC50 (K562) | IC50 (LS180) | Compound | IC50 (MCF7) | zone of inhibition at 100 µg/mL (Staphylococcus aureus [1]) | zone of inhibition at 100 µg/mL (Bacillus subtilis) | zone of inhibition at 100 µg/mL (Escherichia coli [2]) | zone of inhibition at 100 µg/mL (Salmonella typhimurium) | also measured
1 | 88.2 µM | 43.8 µM | > 100 µM | O=C1CCCc2nc3c(c(-c4ccc([N+](=O)[O-])cc4)c21)c(=O)oc1ccccc13 | > 100 µM | – | – | – | – | –
2 | – | – | – | Cc1ccc2c(c1)oc(=O)c1c(-c3cn(-c4ccccc4)nc3-c3ccccc3)cc(-c3c(O)c(Br)cc(Cl)c3Cl)nc12 | – | 21 mm | 20 mm | 19 mm | 22 mm | –
3 | > 100 µM | > 100 µM | > 100 µM | Cc1ccccc1-c1c2c(nc3c1c(=O)oc1ccccc13)CCCC2=O | > 100 µM | – | – | – | – | –
4 | – | – | – | CCOC(=O)c1sc2c(c1NC(=O)CNc1ccc(C)cc1)c(=O)oc1ccccc12 | – | – | – | – | – | zone of inhibition at 20000 µg/mL (Staphylococcus aureus [3]): 0 mm; zone of inhibition at 20000 µg/mL (Bacillus cereus): 0 mm; zone of inhibition at 20000 µg/mL (Escherichia coli [4]): 0 mm; zone of inhibition at 20000 µg/mL (Pseudomonas aeruginosa): 0 mm; zone of inhibition at 20000 µg/mL (Serratia marcescens): 0 mm; zone of inhibition at 20000 µg/mL (Micrococcus luteus): 0 mm; zone of inhibition at 20000 µg/mL (Candida albicans): 13 mm; zone of inhibition at 20000 µg/mL (Trichophyton rubrum): 0 mm; zone of inhibition at 20000 µg/mL (Aspergillus flavus): 0 mm; zone of inhibition at 20000 µg/mL (Fusarium oxysporum): 0 mm; zone of inhibition at 20000 µg/mL (Scopulariopsis): 0 mm; zone of inhibition at 20000 µg/mL (Geotrichum candidum): 8 mm
5 | > 100 µM | > 100 µM | > 100 µM | COc1cccc(-c2c3c(nc4c2c(=O)oc2ccccc24)CCCC3=O)c1 | > 100 µM | – | – | – | – | –
6 | 98.5 µM | > 100 µM | > 100 µM | COc1ccc(-c2c3c(nc4c2c(=O)oc2ccccc24)CCCC3=O)cc1 | 62 µM | – | – | – | – | –
7 | – | – | – | CCOC(=O)c1sc2c(c1NC(=O)CNc1ccc(S(=O)(=O)NN=N)cc1)c(=O)oc1ccccc12 | – | – | – | – | – | zone of inhibition at 20000 µg/mL (Staphylococcus aureus [3]): 10 mm; zone of inhibition at 20000 µg/mL (Bacillus cereus): 0 mm; zone of inhibition at 20000 µg/mL (Escherichia coli [4]): 9 mm; zone of inhibition at 20000 µg/mL (Pseudomonas aeruginosa): 9 mm; zone of inhibition at 20000 µg/mL (Serratia marcescens): 0 mm; zone of inhibition at 20000 µg/mL (Micrococcus luteus): 0 mm; zone of inhibition at 20000 µg/mL (Candida albicans): 13 mm; zone of inhibition at 20000 µg/mL (Trichophyton rubrum): 0 mm; zone of inhibition at 20000 µg/mL (Aspergillus flavus): 0 mm; zone of inhibition at 20000 µg/mL (Fusarium oxysporum): 0 mm; zone of inhibition at 20000 µg/mL (Scopulariopsis): 0 mm; zone of inhibition at 20000 µg/mL (Geotrichum candidum): 0 mm
8 | – | – | – | CCOC(=O)c1sc2c(c1NC(=O)CN1CCOCC1)c(=O)oc1ccccc12 | – | – | – | – | – | zone of inhibition at 20000 µg/mL (Staphylococcus aureus [3]): 0 mm; zone of inhibition at 20000 µg/mL (Bacillus cereus): 0 mm; zone of inhibition at 20000 µg/mL (Escherichia coli [4]): 0 mm; zone of inhibition at 20000 µg/mL (Pseudomonas aeruginosa): 9 mm; zone of inhibition at 20000 µg/mL (Serratia marcescens): 0 mm; zone of inhibition at 20000 µg/mL (Micrococcus luteus): 0 mm; zone of inhibition at 20000 µg/mL (Candida albicans): 0 mm; zone of inhibition at 20000 µg/mL (Trichophyton rubrum): 0 mm; zone of inhibition at 20000 µg/mL (Aspergillus flavus): 0 mm; zone of inhibition at 20000 µg/mL (Fusarium oxysporum): 0 mm; zone of inhibition at 20000 µg/mL (Scopulariopsis): 0 mm; zone of inhibition at 20000 µg/mL (Geotrichum candidum): 0 mm
9 | 43.6 µM | 56.2 µM | > 100 µM | Cc1ccc(-c2c3c(nc4c2c(=O)oc2ccccc24)CCCC3=O)cc1 | 66.7 µM | – | – | – | – | –
10 | 83.6 µM | 38.8 µM | > 100 µM | O=C1CCCc2nc3c(c(-c4cccc(Br)c4)c21)c(=O)oc1ccccc13 | 31.4 µM | – | – | – | – | –
11 | – | – | – | O=C(N[C@H](CO)[C@H](O)c1ccc([N+](=O)[O-])cc1)C(Cl)Cl [CHLORAMPHENICOL] | – | – | – | – | – | zone of inhibition at 20000 µg/mL (Staphylococcus aureus [3]): 18 mm; zone of inhibition at 20000 µg/mL (Bacillus cereus): 22 mm; zone of inhibition at 20000 µg/mL (Escherichia coli [4]): 18 mm; zone of inhibition at 20000 µg/mL (Pseudomonas aeruginosa): 18 mm; zone of inhibition at 20000 µg/mL (Serratia marcescens): 20 mm; zone of inhibition at 20000 µg/mL (Micrococcus luteus): 20 mm; zone of inhibition at 20000 µg/mL (Candida albicans): 20 mm; zone of inhibition at 20000 µg/mL (Trichophyton rubrum): 36 mm; zone of inhibition at 20000 µg/mL (Aspergillus flavus): 44 mm; zone of inhibition at 20000 µg/mL (Fusarium oxysporum): 28 mm; zone of inhibition at 20000 µg/mL (Scopulariopsis): 20 mm; zone of inhibition at 20000 µg/mL (Geotrichum candidum): 24 mm
12 | – | – | – | Cc1ccc2c(c1)oc(=O)c1c(-c3cn(-c4ccccc4)nc3-c3ccccc3)cc(-c3c(O)c(I)cc(Cl)c3Cl)nc12 | – | 16 mm | 8 mm | 18 mm | 14 mm | –
13 | 47.3 µM | 47.5 µM | > 100 µM | O=C1CCCc2nc3c(c(-c4ccc(Br)cc4)c21)c(=O)oc1ccccc13 | 46.2 µM | – | – | – | – | –
14 | – | – | – | Cc1ccc2c(c1)oc(=O)c1c(-c3cn(-c4ccccc4)nc3-c3ccccc3)cc(-c3c(O)c(Cl)cc(Br)c3O)nc12 | – | 18 mm | 16 mm | 19 mm | 12 mm | –
15 | – | – | – | Cc1ccc2c(c1)oc(=O)c1c(-c3cn(-c4ccccc4)nc3-c3ccccc3)cc(-c3ccc(Cl)cc3Cl)nc12 | – | 16 mm | 19 mm | 21 mm | 19 mm | –
16 | – | – | – | Cc1ccc2c(c1)oc(=O)c1c(-c3cn(-c4ccccc4)nc3-c3ccccc3)cc(-c3c(O)ccc(Cl)c3Cl)nc12 | – | 8 mm | 10 mm | 12 mm | 10 mm | –

— ChEMBL document CHEMBL5230136, “A review: Biologically active 3,4-heterocycle-fused coumarins” (Eur J Med Chem, 2021)
